Measured values: US20080076666A1, “Formulation” (priority 2005, published 2008)
Values after ≈ are worked out from the molar mass of the structure shown. Read-outs that look alike come from different tables or passages of the source.

Assays:
[1] = Water solubility of UV protection dyes (Table 1); conditions: for solubility: water
[2] = Photo stabilisation study of COMPOUND (V) in gelatine microcapsules exposed to daylight (HPLC); format: physicochemical
Protocol: The HPLC system was from Waters comprising of two 510 pumps, a 717 plus Autosampler, a System Interface Module, a Lambda-Max 480 detector and Millennium Chromatography Manager software. Chromatography was achieved on a Zorbax ODS 5 μm C18 analytical column of dimension 4.6×250 mm internal diameter maintained at 35° C. Mobile phases were unmodified water (Milli-Q grade) in reservoir A and unmodified acetonitrile in reservoir B. Linear gradient elution was used with 70 to 90% B over the first 10 minutes, then 100% B for 3 minutes and returning to 70% B over 4 minutes. Injection cycle time was 20 minutes with a flow rate of 2 ml/min. The samples were either dissolved in acetonitrile or diethyl ether and 10 μl volume injected on to the column which was maintained at 35° C. Prior to use, mobile phase were degassed under vacuum with sonication and continuously sparged with helium. The naphthoquinones were detected by measurement of UV absorbance at 269 nm.
A batch of gelatine microcapsules containing 300 mg of COMPOUND (V) in 15 ml of Exxsol® D100 was produced.
The capsule slurry was washed repeatedly with water to remove debris and filtered to obtain a wet cake. An aliquot of the wet cake (11.3 g) was made up to 50 ml and dyed brown with Chocolate Brown (500 mg, equivalent to 10 mg/ml solution). Aliquots (200 μl) of microcapsule slurry of brown and undyed capsules were applied to glass microscope slides in duplicate. The slurry from each batch was spread to form a monolayer of microcapsules on each slide. The slides were air dried in a dark at room temperature (≅21° C.) and exposed to daylight on a south-facing windowsill for various time periods. Two slides from each batch were analysed per time point post of exposure. Unexposed slides stored in the dark were used as time zero reference.
The contents of the capsules were extracted by rupturing the capsules, by rolling a glass rod on the slides, and washing both the rod and the slide with diethyl ether. The extracts were made up to 10 ml and assayed by HPLC.

Compound | WATER SOLUBILITY [1] [mg/mL] | other results
Cc1cc(O)ccc1C1(c2ccc(O)cc2C)OS(=O)(=O)c2ccccc21 [m-Cresol Purple] | 2 | –
CC(=O)Nc1ccc2nc3c4ccccc4c(=N)cc-3oc2c1.Cl [Darrow Red] | 1 | –
Cc1cc(N=Nc2cc([N+](=O)[O-])cc([N+](=O)[O-])c2O)c(N)cc1N [Mordant Brown 4] | – | WATER SOLUBILITY ([1]; hot water (remark)): 60 mg/mL
Nc1cc(N)c(S(=O)(=O)[O-])cc1N=Nc1cc([N+](=O)[O-])ccc1O.[Na+] [Mordant Brown 33] | 20 | –
Nc1ccc(N=Nc2cccc(N=Nc3ccc(N)cc3N)c2)c(N)c1 [Bismark Brown Y] | 50 | –
Nc1c(/N=N/c2ccc(-c3ccc(/N=N/c4cc(S(=O)(=O)O)c5ccccc5c4N)cc3)cc2)cc(S(=O)(=O)O)c2ccccc12 [Congo Red] | – | solubility [1]: 40 mg/mL (≈ 61.3 mM)
Cc1nn(-c2ccccc2)c([O-])c1N=Nc1cc([N+](=O)[O-])cc(S(=O)(=O)[O-])c1[O-].[Cr+3].[Na+].[OH-] [Acid Orange 74] | 20 | –
Acid Orange 51 | 30 | –
CCN(CC)c1ccc(N=Nc2ccc(S(=O)(=O)[O-])cc2)cc1.[K+] [Ethyl Orange] | 100 | –
CCN(CC)c1ccc(N=Nc2ccccc2C(=O)O)cc1 [Ethyl Red] | 3 | –
CN(C)c1ccc(/N=N/c2ccccc2C(=O)O)cc1 [Methyl Red] | – | solubility [1]: 2 mg/mL (≈ 7.43 mM)
O=S1(=O)OC(c2ccc(O)c(Cl)c2)(c2ccc(O)c(Cl)c2)c2ccccc21 [Chlorophenol Red] | 60 | –
O=S(=O)([O-])c1ccc2c(N=Nc3ccccc3)c(O)ccc2c1.[Na+] [Crocein Orange G] | 40 | –
Nc1cc(N)c(N=Nc2cccc3c(S(=O)(=O)O)cccc23)cc1N=Nc1cc([N+](=O)[O-])ccc1O.[Na] [Mordant Brown 1] | 60 | –
CC1=NN(c2ccc(S(=O)(=O)[O-])cc2)C(=O)C1N=Nc1ccc(-c2ccc(N=Nc3ccc(OS(=O)(=O)c4ccc(C)cc4)cc3)c(S(=O)(=O)[O-])c2)cc1.[Na+].[Na+] (centres unmarked) [Acid Orange 63] | 50 | –
Cc1c(C2(c3cc(Br)c(O)c(Br)c3C)OS(=O)(=O)c3ccccc32)cc(Br)c(O)c1Br [Bromocresol Green] | – | solubility [1]: 6 mg/mL (≈ 8.6 mM)
Cc1cc(N=Nc2ccc(C)c(N=Nc3cc(C)c(N)cc3N)c2)c(N)cc1N [Bismark Brown R] | – | solubility [1]: 70 mg/mL (≈ 180 mM)
Nc1cc(N)c(N=Nc2cc([N+](=O)[O-])cc([N+](=O)[O-])c2O)cc1Cl [Mordant Brown 48] | 40 | –
CC(=O)OC1=C(C(C)CCC[Si](C)(C)C)C(=O)c2ccccc2C1=O (centres unmarked) [COMPOUND (V)] | – | amount of COMPOUND (V) in capsules, of the initial amount ([2]; Chocolate Brown dyed impervious gelatine microcapsules, 88 hours exposure to daylight (8 hours daylight over 11 days)): ~80%; amount of COMPOUND (V) in capsules, of the initial amount ([2]; undyed impervious gelatine microcapsules, 6 hours exposure to daylight): 60%; amount of COMPOUND (V) in capsules, of the initial amount ([2]; undyed impervious gelatine microcapsules, 16 hours exposure to daylight): 23%; amount of COMPOUND (V) in capsules, of the initial amount ([2]; undyed impervious gelatine microcapsules, 40 hours exposure to daylight (8 hours daylight over 5 days)): 6%; period for which COMPOUND (V) was stabilised on exposure to daylight ([2]; within impervious gelatine microcapsules (Chocolate Brown dyed)): in excess of eleven-days
